From US11465965B2, “Double-headed protease inhibitor” (UBE INDUSTRIES, LTD., priority 2017, dated 2022)

Experiment: in vivo
Conditions: male, SD, rat, po, 10 mg/kg

Work on `Cl.N=C(N)Nc1ccc2c(c1)CCCOc1c(cccc1C(=O)N(CCOCCOCCN(C(=O)c1cccc3c1OCCCc1cc(NC(=N)N)ccc1C(=O)O3)[C@H](CC(=O)O)C(=O)O)[C@H](CC(=O)O)C(=O)O)OC2=O` [21-(c), (2R,13R)-3,12-bis(10-guanidino-13-oxo-6,7,8,13-tetrahydrodibenzo[b,f][1,4]dioxecin-4-carbonyl)-6,9-dioxa-3,12-diazatetradecane-1,2,13,14-tetracarboxylic acid hydrochloride] yielded an AUC of no more than 100 ng·h/mL.
